# From patent US20230066011A1, “PYRROLOPYRIMIDINE DERIVATIVE, AND PHARMACEUTICAL COMPOSITION FOR PREVENTING OR TREATING PROTEIN KINASE-RELATED DISEASE COMPRISING SAME AS ACTIVE INGREDIENT” (VORONOI CO., LTD., priority 2019, published 2023)
# Key:
# Assay type in all cases: binding
# [1] = molecular target: T1, DYRK1A (Homo sapiens, UniProt Q13627); assay: ScanMAX Kinase analysis panel, DYRK1A; conditions: 1 μM in DMSO; <35% considered inhibitory; read-out: percent control (% control), DYRK1A
# T1 construct: purchased DiscoverX Corp. (ScanMAX Kinase analysis panel, service)
# Protocol: (§1) Specifically, the enzyme (kinase) selectivity of Example compounds 238, 361, 411, 157, 161, 228, and 158 selected from the Example compounds of the present invention was determined by commissioning DiscoverX Corp., and an experiment was performed using a ScanMAX™ Kinase analysis panel. In this case, a concentration of the drug with which the enzymes were treated was 1 μM in DMSO, and the percent control (% control) was defined in the same manner as in the following Expression 1.
# (§2) (Example Compound−Positive Control)/(Negative Control−Positive Control)×100 [Expression 1]
# (§3) wherein the positive control represents a compound having a percent control of 0%, and the negative control represents DMSO having a percent control of 100%. For the enzyme selectivity of the present invention, it was considered that the compound has an inhibitory activity on each of the enzymes when the percent control for the corresponding enzyme was <35% (i. e., less than 35%).
# [2] = molecular target: T2, CSNK1D (Homo sapiens, UniProt P48730); assay: ScanMAX Kinase analysis panel, CSNK1D; conditions: 1 μM in DMSO; <35% considered inhibitory; read-out: percent control (% control), CSNK1D
# T2 construct: purchased DiscoverX Corp. (ScanMAX Kinase analysis panel, service)
# Protocol: as §1, §2, §3
# [3] = molecular target: T3, PLK4 (Homo sapiens, UniProt O00444); assay: ScanMAX Kinase analysis panel, PLK4; conditions: 1 μM in DMSO; <35% considered inhibitory; read-out: percent control (% control), PLK4
# T3 construct: purchased DiscoverX Corp. (ScanMAX Kinase analysis panel, service)
# T3 sequence (O00444 1-970): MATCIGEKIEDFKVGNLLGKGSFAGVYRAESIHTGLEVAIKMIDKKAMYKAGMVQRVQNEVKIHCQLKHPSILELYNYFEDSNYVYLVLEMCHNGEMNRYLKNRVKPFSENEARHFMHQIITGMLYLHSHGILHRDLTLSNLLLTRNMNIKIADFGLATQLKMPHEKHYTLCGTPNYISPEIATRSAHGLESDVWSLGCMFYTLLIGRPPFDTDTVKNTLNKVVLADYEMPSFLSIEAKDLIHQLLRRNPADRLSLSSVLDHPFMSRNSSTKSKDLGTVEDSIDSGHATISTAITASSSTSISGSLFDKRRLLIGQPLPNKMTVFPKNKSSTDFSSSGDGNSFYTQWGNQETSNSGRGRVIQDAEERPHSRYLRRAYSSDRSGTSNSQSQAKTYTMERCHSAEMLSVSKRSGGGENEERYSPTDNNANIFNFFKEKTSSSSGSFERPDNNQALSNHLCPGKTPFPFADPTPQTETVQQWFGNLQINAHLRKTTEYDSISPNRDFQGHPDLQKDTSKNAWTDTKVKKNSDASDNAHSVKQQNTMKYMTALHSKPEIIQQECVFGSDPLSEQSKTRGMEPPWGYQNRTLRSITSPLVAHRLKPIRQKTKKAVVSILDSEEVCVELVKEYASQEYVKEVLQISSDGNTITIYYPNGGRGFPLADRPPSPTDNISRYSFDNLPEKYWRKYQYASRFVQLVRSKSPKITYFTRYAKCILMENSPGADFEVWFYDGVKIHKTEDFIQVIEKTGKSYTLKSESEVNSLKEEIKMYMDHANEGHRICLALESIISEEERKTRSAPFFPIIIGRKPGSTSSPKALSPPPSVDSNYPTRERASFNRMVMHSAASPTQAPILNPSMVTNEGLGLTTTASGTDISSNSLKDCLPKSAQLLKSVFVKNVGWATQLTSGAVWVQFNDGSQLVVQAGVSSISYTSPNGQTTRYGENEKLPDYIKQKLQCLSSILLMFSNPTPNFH
# Protocol: as §1, §2, §3
# [4] = molecular target: LRRK2 (Homo sapiens, UniProt Q5S007); assay: ScanMAX Kinase analysis panel, LRRK2; parameters: purchased DiscoverX Corp. (ScanMAX Kinase analysis panel, service); conditions: 1 μM in DMSO; <35% considered inhibitory; read-out: percent control (% control), LRRK2
# Protocol: as §1, §2, §3
# [5] = molecular target: T4, PHKG2 (Homo sapiens, UniProt P15735); assay: ScanMAX Kinase analysis panel, PHKG2; conditions: 1 μM in DMSO; <35% considered inhibitory; read-out: percent control (% control), PHKG2
# T4 construct: purchased DiscoverX Corp. (ScanMAX Kinase analysis panel, service)
# T4 sequence (P15735 1-406): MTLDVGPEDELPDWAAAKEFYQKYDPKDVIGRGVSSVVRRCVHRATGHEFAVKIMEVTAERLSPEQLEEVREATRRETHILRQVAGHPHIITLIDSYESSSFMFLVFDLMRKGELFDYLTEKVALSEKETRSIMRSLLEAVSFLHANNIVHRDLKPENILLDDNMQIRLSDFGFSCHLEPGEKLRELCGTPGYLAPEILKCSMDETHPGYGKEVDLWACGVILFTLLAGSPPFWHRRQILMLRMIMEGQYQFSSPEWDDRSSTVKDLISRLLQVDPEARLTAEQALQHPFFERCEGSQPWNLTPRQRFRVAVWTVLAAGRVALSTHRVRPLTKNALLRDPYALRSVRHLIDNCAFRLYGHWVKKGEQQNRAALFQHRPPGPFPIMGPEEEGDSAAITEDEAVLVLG
# Protocol: as §1, §2, §3
# [6] = molecular target: T5, CSNK1E (Homo sapiens, UniProt P49674); assay: ScanMAX Kinase analysis panel, CSNK1E; conditions: 1 μM in DMSO; <35% considered inhibitory; read-out: percent control (% control), CSNK1E
# T5 construct: purchased DiscoverX Corp. (ScanMAX Kinase analysis panel, service)
# Protocol: as §1, §2, §3
# [7] = molecular target: T6, DYRK1B (Homo sapiens, UniProt Q9Y463); assay: ScanMAX Kinase analysis panel, DYRK1B; conditions: 1 μM in DMSO; <35% considered inhibitory; read-out: percent control (% control), DYRK1B
# T6 construct: purchased DiscoverX Corp. (ScanMAX Kinase analysis panel, service)
# Protocol: as §1, §2, §3
# [8] = molecular target: T7, CLK1 (Homo sapiens, UniProt P49759); assay: ScanMAX Kinase analysis panel, CLK1; conditions: 1 μM in DMSO; <35% considered inhibitory; read-out: percent control (% control), CLK1
# T7 construct: purchased DiscoverX Corp. (ScanMAX Kinase analysis panel, service)
# Protocol: as §1, §2, §3
# [9] = molecular target: T8, CLK2 (Homo sapiens, UniProt P49760); assay: ScanMAX Kinase analysis panel, CLK2; conditions: 1 μM in DMSO; <35% considered inhibitory; read-out: percent control (% control), CLK2
# T8 construct: purchased DiscoverX Corp. (ScanMAX Kinase analysis panel, service)
# Protocol: as §1, §2, §3
# T8 sequence (P49760 whole entry): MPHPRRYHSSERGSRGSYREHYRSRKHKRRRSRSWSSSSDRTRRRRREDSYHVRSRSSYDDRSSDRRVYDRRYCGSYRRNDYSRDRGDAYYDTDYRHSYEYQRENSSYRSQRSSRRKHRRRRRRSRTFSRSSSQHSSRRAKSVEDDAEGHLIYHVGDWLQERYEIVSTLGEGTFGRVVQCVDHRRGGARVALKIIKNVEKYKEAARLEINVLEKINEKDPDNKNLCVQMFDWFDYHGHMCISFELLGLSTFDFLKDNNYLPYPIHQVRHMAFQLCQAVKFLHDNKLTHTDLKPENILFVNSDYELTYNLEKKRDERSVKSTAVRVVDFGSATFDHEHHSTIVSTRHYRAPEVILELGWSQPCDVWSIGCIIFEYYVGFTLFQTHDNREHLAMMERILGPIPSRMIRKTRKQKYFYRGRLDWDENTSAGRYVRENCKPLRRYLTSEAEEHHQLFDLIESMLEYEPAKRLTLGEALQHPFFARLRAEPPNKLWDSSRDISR
# T5 sequence (P49674 whole entry): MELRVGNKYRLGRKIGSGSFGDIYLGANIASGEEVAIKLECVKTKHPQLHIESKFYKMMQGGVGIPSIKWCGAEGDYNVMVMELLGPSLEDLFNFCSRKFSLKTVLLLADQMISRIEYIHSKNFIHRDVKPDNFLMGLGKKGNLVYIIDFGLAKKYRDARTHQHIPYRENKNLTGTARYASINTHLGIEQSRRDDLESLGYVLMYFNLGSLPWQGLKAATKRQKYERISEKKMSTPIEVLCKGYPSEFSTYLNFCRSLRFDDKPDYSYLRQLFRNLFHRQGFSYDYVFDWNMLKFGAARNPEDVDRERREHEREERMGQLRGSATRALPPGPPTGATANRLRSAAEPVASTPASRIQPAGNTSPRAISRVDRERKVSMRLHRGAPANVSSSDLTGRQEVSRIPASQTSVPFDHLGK
# T6 sequence (Q9Y463 whole entry): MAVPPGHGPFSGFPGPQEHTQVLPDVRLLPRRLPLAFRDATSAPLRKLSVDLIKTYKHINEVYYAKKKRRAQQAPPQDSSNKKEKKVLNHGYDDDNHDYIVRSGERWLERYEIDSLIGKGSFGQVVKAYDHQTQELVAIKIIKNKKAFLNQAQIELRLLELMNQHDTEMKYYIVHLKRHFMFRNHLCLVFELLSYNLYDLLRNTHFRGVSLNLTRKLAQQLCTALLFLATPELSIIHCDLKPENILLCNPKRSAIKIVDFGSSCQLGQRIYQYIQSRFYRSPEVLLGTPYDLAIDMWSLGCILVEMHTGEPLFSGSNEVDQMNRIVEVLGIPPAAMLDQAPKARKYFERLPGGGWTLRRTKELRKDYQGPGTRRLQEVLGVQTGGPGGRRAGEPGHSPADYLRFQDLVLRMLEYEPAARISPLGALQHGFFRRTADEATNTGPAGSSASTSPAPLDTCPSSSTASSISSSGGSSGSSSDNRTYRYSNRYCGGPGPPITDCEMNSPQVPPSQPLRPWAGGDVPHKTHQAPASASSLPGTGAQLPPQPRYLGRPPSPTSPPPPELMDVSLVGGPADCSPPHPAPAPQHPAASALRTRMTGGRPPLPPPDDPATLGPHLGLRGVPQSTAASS
# T2 sequence (P48730 whole entry): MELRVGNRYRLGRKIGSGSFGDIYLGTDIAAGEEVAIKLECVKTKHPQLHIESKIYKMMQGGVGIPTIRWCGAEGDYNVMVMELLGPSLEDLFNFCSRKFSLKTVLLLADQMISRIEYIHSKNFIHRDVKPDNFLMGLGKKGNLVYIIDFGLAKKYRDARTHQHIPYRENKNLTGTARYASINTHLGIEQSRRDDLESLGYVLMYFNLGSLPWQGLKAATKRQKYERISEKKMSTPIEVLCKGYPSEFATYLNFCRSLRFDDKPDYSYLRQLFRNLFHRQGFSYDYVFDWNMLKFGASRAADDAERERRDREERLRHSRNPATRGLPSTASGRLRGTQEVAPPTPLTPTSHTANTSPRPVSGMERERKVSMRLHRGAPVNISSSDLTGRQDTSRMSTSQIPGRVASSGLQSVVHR
# T7 sequence (P49759 whole entry): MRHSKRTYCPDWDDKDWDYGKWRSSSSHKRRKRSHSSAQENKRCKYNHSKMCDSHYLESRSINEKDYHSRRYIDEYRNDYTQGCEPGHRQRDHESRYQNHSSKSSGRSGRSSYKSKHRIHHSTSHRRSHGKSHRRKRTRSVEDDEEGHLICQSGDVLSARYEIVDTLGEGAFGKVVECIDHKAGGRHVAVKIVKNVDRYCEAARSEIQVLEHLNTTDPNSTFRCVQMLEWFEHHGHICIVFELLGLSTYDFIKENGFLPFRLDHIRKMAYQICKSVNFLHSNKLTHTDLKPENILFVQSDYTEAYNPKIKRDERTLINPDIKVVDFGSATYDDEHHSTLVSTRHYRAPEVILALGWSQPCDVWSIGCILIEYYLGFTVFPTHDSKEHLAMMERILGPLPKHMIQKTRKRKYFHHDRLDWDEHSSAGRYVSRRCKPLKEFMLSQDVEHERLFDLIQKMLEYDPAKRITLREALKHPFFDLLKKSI
# LRRK2, sequence (Q5S007 whole entry): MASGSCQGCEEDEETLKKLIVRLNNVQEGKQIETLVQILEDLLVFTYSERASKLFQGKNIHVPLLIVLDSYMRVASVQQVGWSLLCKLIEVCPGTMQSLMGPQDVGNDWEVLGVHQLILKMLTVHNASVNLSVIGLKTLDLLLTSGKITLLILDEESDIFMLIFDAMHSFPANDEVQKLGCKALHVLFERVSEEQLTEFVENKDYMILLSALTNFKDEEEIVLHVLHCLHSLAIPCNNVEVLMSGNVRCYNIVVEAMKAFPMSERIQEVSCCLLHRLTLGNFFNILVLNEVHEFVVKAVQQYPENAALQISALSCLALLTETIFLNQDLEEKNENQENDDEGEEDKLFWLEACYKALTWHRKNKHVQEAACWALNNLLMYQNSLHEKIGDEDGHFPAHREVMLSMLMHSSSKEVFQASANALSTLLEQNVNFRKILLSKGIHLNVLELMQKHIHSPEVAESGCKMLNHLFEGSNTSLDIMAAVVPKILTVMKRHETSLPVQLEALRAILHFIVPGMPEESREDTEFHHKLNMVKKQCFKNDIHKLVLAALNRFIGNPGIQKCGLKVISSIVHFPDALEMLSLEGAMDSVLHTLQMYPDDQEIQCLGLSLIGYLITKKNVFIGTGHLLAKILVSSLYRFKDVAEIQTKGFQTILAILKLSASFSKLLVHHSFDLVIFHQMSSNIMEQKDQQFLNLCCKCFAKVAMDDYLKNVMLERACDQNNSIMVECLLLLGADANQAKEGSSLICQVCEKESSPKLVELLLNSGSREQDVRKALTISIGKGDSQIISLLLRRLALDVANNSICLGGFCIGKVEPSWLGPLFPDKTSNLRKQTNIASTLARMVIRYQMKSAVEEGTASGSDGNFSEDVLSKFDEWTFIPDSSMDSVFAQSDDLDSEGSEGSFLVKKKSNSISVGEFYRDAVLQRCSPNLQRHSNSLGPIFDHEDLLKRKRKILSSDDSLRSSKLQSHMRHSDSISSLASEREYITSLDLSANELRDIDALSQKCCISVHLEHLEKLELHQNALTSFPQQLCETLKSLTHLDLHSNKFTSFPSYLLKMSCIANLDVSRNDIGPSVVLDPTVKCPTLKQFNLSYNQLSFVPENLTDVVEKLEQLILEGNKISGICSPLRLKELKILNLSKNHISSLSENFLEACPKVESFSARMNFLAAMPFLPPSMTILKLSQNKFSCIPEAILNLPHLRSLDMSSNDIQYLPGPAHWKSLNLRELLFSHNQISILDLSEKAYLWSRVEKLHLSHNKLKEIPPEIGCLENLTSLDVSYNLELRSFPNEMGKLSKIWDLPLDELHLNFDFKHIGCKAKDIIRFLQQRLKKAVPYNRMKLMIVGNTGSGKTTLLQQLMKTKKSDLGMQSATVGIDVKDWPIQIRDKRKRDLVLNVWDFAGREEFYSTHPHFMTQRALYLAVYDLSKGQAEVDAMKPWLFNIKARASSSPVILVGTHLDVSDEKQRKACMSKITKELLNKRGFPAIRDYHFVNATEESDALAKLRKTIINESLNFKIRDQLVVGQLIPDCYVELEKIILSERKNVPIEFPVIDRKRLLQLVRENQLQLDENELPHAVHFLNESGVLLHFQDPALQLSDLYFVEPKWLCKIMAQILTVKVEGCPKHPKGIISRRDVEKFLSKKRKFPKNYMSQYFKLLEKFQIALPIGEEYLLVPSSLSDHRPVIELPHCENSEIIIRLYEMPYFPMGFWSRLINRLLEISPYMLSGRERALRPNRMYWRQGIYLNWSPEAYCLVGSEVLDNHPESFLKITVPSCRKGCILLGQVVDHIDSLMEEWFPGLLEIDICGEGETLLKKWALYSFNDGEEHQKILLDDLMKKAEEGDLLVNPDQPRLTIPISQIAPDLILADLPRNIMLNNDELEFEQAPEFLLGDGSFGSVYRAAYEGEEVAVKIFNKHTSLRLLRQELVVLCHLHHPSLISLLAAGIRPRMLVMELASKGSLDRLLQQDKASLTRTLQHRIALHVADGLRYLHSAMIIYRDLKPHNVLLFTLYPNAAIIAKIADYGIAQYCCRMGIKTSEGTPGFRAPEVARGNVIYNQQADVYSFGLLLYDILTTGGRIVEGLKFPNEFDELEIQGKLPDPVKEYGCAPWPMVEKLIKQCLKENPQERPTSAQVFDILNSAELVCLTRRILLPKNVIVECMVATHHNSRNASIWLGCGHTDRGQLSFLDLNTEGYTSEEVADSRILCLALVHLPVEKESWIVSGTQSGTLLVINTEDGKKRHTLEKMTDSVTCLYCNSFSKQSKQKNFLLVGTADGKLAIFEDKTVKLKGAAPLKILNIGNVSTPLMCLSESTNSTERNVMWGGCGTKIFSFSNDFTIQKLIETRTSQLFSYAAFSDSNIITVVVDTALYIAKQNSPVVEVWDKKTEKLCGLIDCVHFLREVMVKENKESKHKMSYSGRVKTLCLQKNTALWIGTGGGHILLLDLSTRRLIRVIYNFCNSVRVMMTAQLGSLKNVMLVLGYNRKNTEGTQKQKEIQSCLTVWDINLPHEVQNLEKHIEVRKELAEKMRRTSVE
remaining binding at 1 µM [1],remaining binding at 1 µM [2],remaining binding at 1 µM [3],remaining binding at 1 µM [4],remaining binding at 1 µM [5],remaining binding at 1 µM [6],remaining binding at 1 µM [7],remaining binding at 1 µM [8],remaining binding at 1 µM [9],SMILES
0.05%,2.9%,10%,0.7%,5.8%,2.4%,0%,6.7%,2.9%,"CNc1nc(Nc2ccc(S(=O)(=O)N3CCC(N4CCOCC4)CC3)cc2OC)nc2[nH]cc(C(F)(F)F)c12 [Example 157, N^2-(2-methoxy-4-((4-morpholinopiperidin-1-yl)sulfonyl)phenyl)-N^4-methyl-5-(trifluoromethyl)-7H-pyrrolo[2,3-d]pyrimidine-2,4-diamine 2,2,2-trifluoroacetate]"
0.75%,5.3%,26%,0%,51%,3.3%,0.8%,1%,22%,"CCNc1nc(Nc2ccc(S(=O)(=O)N3CCC(N4CCOCC4)CC3)cc2OC)nc2[nH]cc(C(F)(F)F)c12 [Example 158, N^4-ethyl-N^2-(2-methoxy-4-((4-morpholinopiperidin-1-yl)sulfonyl)phenyl)-5-(trifluoromethyl)-7H-pyrrolo[2,3-d]pyrimidine-2,4-diamine 2,2,2-trifluoroacetate]"
2%,15%,11%,1%,21%,12%,0%,5.5%,3.9%,"CCCNc1nc(Nc2ccc(S(=O)(=O)N3CCC(N4CCOCC4)CC3)cc2OC)nc2[nH]cc(C(F)(F)F)c12 [Example 161, N^2-(2-methoxy-4-((4-morpholinopiperidin-1-yl)sulfonyl)phenyl)-N^4-propyl-5-(trifluoromethyl)-7H-pyrrolo[2,3-d]pyrimidine-2,4-diamine]"
0.5%,45%,3.2%,0.3%,5.5%,40%,0%,6.1%,5.5%,"O=C(c1ccc(Nc2nc(C3CC3)c3c(C(F)(F)F)c[nH]c3n2)c2c1OCCO2)N1CCC(N2CCOCC2)CC1 [Example 228, (8-((4-cyclopropyl-5-(trifluoromethyl)-7H-pyrrolo[2,3-d]pyrimidin-2-yl)amino)-2,3-dihydrobenzo[b][1,4]dioxin-5-yl)(4-morpholinopiperidin-1-yl)methanone]"
0.25%,16%,7.8%,0.45%,2.2%,32%,0%,16%,0.65%,"CNc1nc(Nc2ccc(C(=O)N3CCC(N4CCOCC4)CC3)c3c2OCCO3)nc2[nH]cc(C(F)(F)F)c12 [Example 238, (8-((4-(methylamino)-5-(trifluoromethyl)-7H-pyrrolo[2,3-d]pyrimidin-2-yl)amino)-2,3-dihydrobenzo[b][1,4]dioxin-5-yl)(4-morpholinopiperidin-1-yl)methanone]"
2.6%,3.9%,0.3%,0%,3%,0.05%,6.1%,2.4%,3.9%,"C=CCNc1nc(Nc2ccc(S(=O)(=O)N3CCC(N4CCOCC4)CC3)cc2OC)nc2[nH]cc(C#N)c12 [Example 361, 4-(allylamino)-2-((2-methoxy-4-((4-morpholino-piperidin-1-yl)sulfonyl)phenyl)amino)-7H-pyrrolo[2,3-d]pyrimidine-5-carbonitrile]"
0.2%,14%,23%,1.9%,2.5%,31%,4.5%,7.2%,0%,"CNc1nc(Nc2ccc(P3(=O)CCN(C4CC4)CC3)cc2OC)nc2[nH]cc(C(F)(F)F)c12 [Example 411, 1-cyclopropyl-4-(3-methoxy-4-((4-(methylamino)-5-(trifluoromethyl)-7H-pyrrolo[2,3-d]pyrimidin-2-yl)amino)phenyl)-1,4-azaphosphinane-4-oxide]"
